Experiments:
MG-63/GFRα1 tumors = test: MG-63/GFRα1 xenograft in BALB/c nude mice; type: in vivo; settings: CQ 60 mg/kg, cisplatin 3 mg/kg, once a week
Description: FIG. 5. GFRα1-mediated autophagy promotes chemoresistance and tumor growth in vivo. (a) BALB/c nude mice (n =40) were injected with MG-63 cells that were transfected with either control or GFRα1 expressing vector. Tumor volume was measured every 3 or 4 days. Data are shown as mean±SEM. ** p<0.05. (b) BALB/c nude mice (n=20) were injected with MG-63 cells that were transfected with either control or GFRα1 shRNA. Tumor volume was measured every 3 or 4 days. Data are shown as mean±SEM. ** p<0.05. (c) Tumors that were generated from mice injected with MG-63 cells containing GFRα1 expressing vector were directly injected with PBS, CQ, cisplatin, or cisplatin+CQ. Tumor volume was measured every 4 days. Data are shown as mean±SEM. ** p<0.05 vs PBS, CQ, or cisplatin-treated tumors. (d) Left, representative images of immunofluorescence staining of HMGB1 in a section from tumors generated from mice injected with MG-63 cells containing GFRα1 expressing vector and then treated with PBS, CQ, cisplatin, or cisplatin+CQ. Right, quantitative analysis of percentage of cytoplasmic HMGB1-positive cells in HMGB1-positive tumors. The values are represented as a mean±s.d.m. (n=3). ** denotes p<0.05 by t-test. (e) Left, representative images of TUNEL-positive cells in a section from tumors generated from mice injected with MG-63 cells containing GFRα1 expressing vector and then treated with PBS, CQ, cisplatin, or cisplatin+CQ. Right, quantitative analysis of percentage of TUNEL-positive cells in HMGB1-positive tumors. The values are represented as a mean±s.d.m. (n=3). ** denotes p<0.05 by t-test. (0 Survival rate of mice injected with MG-63 cells containing GFRα1 expressing vector and then treated with either cisplatin or cisplatin+CQ. (g) Representative images of immunohistochemical staining of GFRα1 in a section from human osteosarcoma patient before and after cisplatin treatment. (h) Representative images of immunofluorescence staining of GFRα1 and HMGB1 in a section from human osteosarcoma patient before and after cisplatin treatment.
Tumor formation in nude mice. The mice used in this study were 6-week-old female BALB/c nude mice purchased from Orient Bio Inc. (Seongnam, Korea). […] The tumor size was measured with a caliper every 3 or 4 days. […] The tumor size was measured with a caliper every 4 days. […] were calculated from caliper measurements of tumor dimensions in mm using the formula for a prolate ellipsoid: (L×W^2)/2 where L is the longer of the two-measurements.
Statistical analysis. Survival data was analyzed by the Kaplan-Meier and log-rank test with GraphPad Prism v5.04 (GraphPad Software, La Jolla Calif.). Plating efficiency (PE, %)=(Number of colonies counted/Number of cells plated)×100. […] All values are expressed as the mean±standard deviation (SD). […]

[1] = system: GFRα1 expression in MG-63 and U-2 OS cells; test: Immunoblot of GFRα1 expression after chemotherapeutic agents; type: cell-based, human; settings: doxorubicin 5 μM, cisplatin 20 μM, methotrexate 1 mM, 24 hr
Description: FIG. 1. Cisplatin induces GFRα1 expression in osteosarcoma cells. (a-c) Immunoblot analysis of osteosarcoma cell lysates with antibodies specific for GFRα1 and β-actin. (a) MG-63 and U-2 OS cells were treated with doxorubicin (5 μM), cisplatin (20 μM), or methotrexate (1 mM) for 24 hr. Immunoblot analysis of GFRα1 (left) and quantification of GFRα1 expression (right) after treatment of chemotherapeutic agents. (b) MG-63 and U-2 OS cells were treated with different concentrations of cisplatin for 24 hr. (c) MG-63 and U-2 OS cells were treated with cisplatin (20 μM) and collected at the indicated time. (d and e) Quantitative real-time PCR of GFRα1 mRNA expression after cisplatin treatment. Representative images (top) and quantitative analysis (bottom) of GFRα1 mRNA expression. The values are presented as a mean±s.d.m (n=3). ** denotes p<0.05 by t-test. (d) MG-63 and U-2 OS cells were treated with different concentrations of cisplatin for 24 hr. (e) MG-63 and U-2 OS cells were treated with cisplatin (20 μM) and collected at the indicated time.
Immunoblotting. Cells were washed with PBS and lysed in RIPA Buffer (Pierce, Rockford, Ill.). The protein content was determined using a dye-binding microassay (Bio-Rad, Hercules, Calif.), and 10-50 μg protein per lane was electrophoresed on 4-12% SDS polyacrylamide gels. Proteins were blotted onto Hybond ECL membranes (Amersham Pharmacia Biotech, Piscataway, N.J.). Two protein ladders were used for molecular weight determination (GenDEPOT, Barker, Tex.). The blotted proteins were detected using an enhanced chemiluminescence detection system (iNtRON, Seoul, Korea). Data were quantified and analyzed with Image-J software.

N.N.[Cl][Pt][Cl] [cisplatin, Cis-Diamineplatinum(II) dichloride]
tumor progression (MG-63/GFRα1 tumors): allowed the tumors to survive | tumor volume compared to PBS-treated mice (MG-63/GFRα1 tumors): decreased | level of GFRα1 expression [1]: significantly increased
